What was measured:
[1] = tested on: sciatic nerve; test: Counts of myelinated axons 5.0 mm distal to repair by light microscopy; assay type: in vivo, rat; conditions: treated nerves vs. control nerve
Protocol: (§1) lwenty raty art anenthetizve with sel rompun (0.5 cc total volume). The right sciatic nerve is exposed and severed with microneuroscissors, and subsequently repaired microsurgically with 6-8 circumferential microsutures using 10-0 nylon. Immediately following surgery the treated animals receive 12 mg/kg Ac leupeptin in 5% DMSO (dimethylsulphoxide) as a bath on their sciatic nerve, 0.25 cc. total volume. Then the treated animals are injected intramuscularly in right hindlimb with 0.25 cc of a solution containing 12 mg/kg Ac leupeptin in 5% DMSO. Control animals receive the same surgical treatment, but the bath and intramuscular injection consist only of the solvent and 5% DMSO.
(§2) Thereafter, treated animals are injected twice weekly in the operated hindlimb with 12 mg/kg Ac leupeptin in 5% DMSO (0.25 cc total volume) for periods of 1 week, 1 month, two months, three months - and six months. Control animals are injected with 0.25 cc of 5% DMSO twice weekly in the operated hindlimb for the same time period.
(§3) Two treated and two control animals are assigned to each of the stated time periods.
(§4) A ten mm. portion of the repaired sciatic nerve is excised from each animal. This is fixed in 3.0% glutaraldehyde in 0.1 M sodium cacodylate, pH 7.3, overnight for electron microscopy. After post-fixation in 1.0% osmium tetroxide, ethanol dehydration and embedding in Polybed 812, both thick (1 micron) and thin (500 A°) transverse sections are cut on a ultramicrotome. Portions of the excised muscles receive similar preparation for electron microscopy.
(§5) Thick sections of the sciatic nerve are placed on microscope slots stained with toluidine blue and photographed at a constant magnification in the light microscope. Thin sections of both nerve and muscles are placed on 300 mesh copper grid calm, stained with uranyl acetate and lead citrate and photographed using a Hitachi HU-12 electron microscope.

[2] = tested on: sciatic nerve; test: Counts of myelinated axons 5.0 mm proximal to repair by light microscopy; assay type: in vivo, rat; conditions: all time periods, treated nerves compared to control
Protocol: as §1, §2, §3, §4, §5

[3] = tested on: sciatic nerve; test: Counts of myelinated and unmyelinated axons 5.0 mm distal to repair by electron microscopy; assay type: in vivo, rat; conditions: ultrastructural data, up to and including 6 months of treatment
Protocol: as §1, §2, §3, §4, §5

[4] = tested on: neurofiber regrowth; test: Neurofiber regrowth after microsurgical neurorrhaphy (summary of tables I-V); assay type: in vivo, mammals
Protocol: as §1, §2, §3
All animals are sacrified by an overdose of pentobarbital, 1.0 cc total volume. […] Myofiber diameters are determined by photographing hematoxylin and eosin sections at a constant magnification in the light microscope. […]

[5] = tested on: neurofiber regrowth; test: Effective dose based upon laboratory tests; assay type: in vivo, mammals; conditions: of mammalian weight, single or divided doses
Text: The exact dose to be administered is dependent upon the age, weight and particular conditions of the individual involved.

[6] = target: plasmin (Homo sapiens, UniProt P00747); conditions: cited from earlier work
plasmin, sequence (P00747 97-810, species assumed): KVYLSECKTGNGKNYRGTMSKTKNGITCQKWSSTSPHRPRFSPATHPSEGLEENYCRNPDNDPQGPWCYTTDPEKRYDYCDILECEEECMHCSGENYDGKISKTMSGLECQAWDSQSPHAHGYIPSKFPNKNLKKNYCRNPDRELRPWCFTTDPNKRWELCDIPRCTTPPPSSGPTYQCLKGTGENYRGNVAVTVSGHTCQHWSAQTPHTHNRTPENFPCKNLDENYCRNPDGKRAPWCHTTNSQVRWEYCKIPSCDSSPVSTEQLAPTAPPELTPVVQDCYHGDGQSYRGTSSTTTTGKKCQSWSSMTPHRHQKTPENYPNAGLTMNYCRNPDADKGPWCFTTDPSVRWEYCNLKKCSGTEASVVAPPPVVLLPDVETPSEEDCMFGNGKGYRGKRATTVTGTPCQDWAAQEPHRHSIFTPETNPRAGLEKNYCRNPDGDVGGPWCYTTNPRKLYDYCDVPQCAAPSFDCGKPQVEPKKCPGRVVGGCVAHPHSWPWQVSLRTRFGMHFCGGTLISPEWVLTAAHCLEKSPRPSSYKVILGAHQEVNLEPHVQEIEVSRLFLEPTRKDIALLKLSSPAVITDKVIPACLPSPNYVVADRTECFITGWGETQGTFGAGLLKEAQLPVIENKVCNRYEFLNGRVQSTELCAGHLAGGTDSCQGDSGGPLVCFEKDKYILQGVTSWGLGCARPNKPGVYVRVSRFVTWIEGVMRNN

[7] = tested on: kaleikrein; conditions: cited from earlier work
[8] = tested on: thrombokinase; conditions: cited from earlier work
[9] = target: T1, papain (Carica papaya, UniProt P00784); conditions: cited from earlier work
T1 sequence (P00784 134-345): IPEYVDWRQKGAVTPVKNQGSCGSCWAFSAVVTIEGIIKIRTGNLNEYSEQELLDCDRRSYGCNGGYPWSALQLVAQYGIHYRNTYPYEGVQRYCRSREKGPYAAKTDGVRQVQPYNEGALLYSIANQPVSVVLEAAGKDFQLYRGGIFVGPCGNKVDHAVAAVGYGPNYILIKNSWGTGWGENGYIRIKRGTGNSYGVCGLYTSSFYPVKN

[10] = tested on: cathespin B; conditions: in muscle, squid axoplasm and rat sciatic nerve; cited from earlier work
[11] = tested on: cathespin L; conditions: in muscle, squid axoplasm and rat sciatic nerve; cited from earlier work
[12] = tested on: calcium activated neutral protease; conditions: in muscle, squid axoplasm and rat sciatic nerve; cited from earlier work
[13] = tested on: chicken pectoralis muscle; conditions: in vivo; cited from earlier work
[14] = tested on: chicken and rat skeletal and fetal heart preparations; conditions: cited from earlier work

## CC(=O)N[C@@H](CC(C)C)C(=O)N[C@@H](CC(C)C)C(=O)N[C@H](C=O)CCCNC(=N)N [leupeptin]
[1]
  Wallerian degeneration distal to repair: do not undergo as severe a form of Wallerian degeneration as the control nerve
[2]
  number of myelinated axons proximal to repair: significantly higher number of myelinated axons when compared to control
[3]
  numbers of both myelinated and unmyelinated axons distal to the repair site: increased numbers of both myelinated and unmyelinated axons
[4]
  neurofiber regrowth: significantly enhances neurofiber regrowth
[5]
  ED50: 8 to 75 mg/kg
[6]
  inhibition of plasmin: effective inhibitor
[7]
  inhibition of kaleikrein: effective inhibitor
[8]
  inhibition of thrombokinase: effective inhibitor
[9]
  inhibition of papain: effective inhibitor
[10]
  inhibition of cathespin B: inhibited
[11]
  inhibition of cathespin L: inhibited
[12]
  inhibition of calcium activated neutral protease: inhibited
[13]
  denervation induced atrophy: successfully used in vivo as an inhibitor of denervation induced atrophy
[14]
  protein degradation: decreased protein degradation
  protein synthesis: no effect on protein synthesis
